Experimental data from ChEMBL document CHEMBL1133832, “Synthesis of the first example of a C2-C3/C2'-C3'-endo unsaturated pyrrolo[2,1-c][1,4]benzodiazepine dimer” (Bioorg Med Chem Lett, 2001).

How the values were obtained:
[1] = Resistance factor (IC50 resistant/ parent); format: functional
A2780 [2] = experiment: Dose of required to inhibit growth of cisplatin resistant human ovarian carcinoma (A2780 cisR) cell line with compound free controls as measured by the sulforhodamine B growth delay assay; format: functional, cell-based
A2780 [3] = experiment: Dose of required to inhibit growth of human ovarian carcinoma (A2780) cell line with compound free controls as measured by the sulforhodamine B growth delay assay; format: functional, cell-based

Row | SMILES | RF [1] | IC50 (A2780 [2]) | IC50 (A2780 [3])
1 | C=C1C[C@H]2C=Nc3cc(OCCCOc4cc5c(cc4OC)C(=O)N4CC(=C)C[C@H]4C=N5)c(OC)cc3C(=O)N2C1 [SJG-136] | 1 | 0.024 nM | 0.0225 nM
2 | COC(=O)CC1=CN2C(=O)c3cc(OC)c(OCCCOc4cc5c(cc4OC)C(=O)N4C=C(CC(=O)OC)C[C@H]4C=N5)cc3N=C[C@@H]2C1 | 10.7 | 58 nM | 5.4 nM
3 | COc1cc2c(cc1OCCCOc1cc3c(cc1OC)C(=O)N1CCC[C@H]1C=N3)N=C[C@@H]1CCCN1C2=O | 29.2 | – | –
